From patent publication US12569468B2, “Use of palovarotene in treatment against HBV virus” (YANG SHENG TANG COMPANY, LTD., priority 2020, dated 2026)

Tested on: HBV
Assay: Inhibitory effect on HBV infection in infection model HepG2-hNTCP 2B1 (drug before infection)
Type: cell-based, hepatitis B virus
Conditions: 1, 5, 25 μM, drug from 24 h before infection to day 8, compared with blank group
Source text: The human sodium-taurocholate cotransporting polypeptide (hNTCP) gene and the red fluorescent protein (mCherry) gene were constructed in a bicistronic expression cassette regulated by tetracycline-inducible promoter, the expression cassette was stably integrated into HepG2-Tet On cells by using a lentiviral system, a stable cell line HepG2-hNTCP 2B1 with high expression of hNTCP was obtained by using flow cytometry sorting technology, and this cell model supported HBV infection and generated HBV-related indicators. (For the construction method of this cell model, please refer to: Ya-Li Zhang, Ying Gao, Jia-Li Cao, Jing-Hua Zhao, Tian-Ying Zhang, ChuanLai Yang, Hua-Long Xiong, Ying-Bin Wang, Shan-Hai Ou, Tong Cheng, Chang-Rong Chen, Quan Yuan & Ning-Shao Xia (2019), Robust in vitro assay for analyzing the neutralization activity of serum specimens against hepatitis B virus, Emerging Microbes & Infections, 8:1, 724-733, DOI: 10.1080/22221751.2019.1619485).
This experiment was carried out in a 24-well culture plate.
About 1.5×10^5 HepG2-hNTCP 2B1 cells were plated in each well, and 500 μL of medium B was added. After the cells adhered, medium A was used for replacement to perform the induction with Doxycycline during the whole experiment.
After 72 hours of the induction with Doxycycline, 500 μL of drug-containing medium A was added to each well to perform drug treatment for 24 h, and then the cells were infected with HBV, the virus amount for infection per well was 100 MOI. Before infection, HBV solution was obtained by diluting HBV in medium C, and the infection volume was 250 μL per well. […]
HBsAg (chemiluminescence enzyme immunoassay (CLEIA), product standard number: YZB/Guo 0346-2014) and HBeAg (enzyme-linked immunosorbent assay (ELISA), product standard number: YZB/Guo 0216-2013) were detected using the Beijing Wantai Company's detection kits, and the specifical detection operations were carried out according to the detection methods described in the instructions in the kits.
After the collected cells were washed with PBS, automated extraction was performed on a nucleic acid extraction workstation (purchased from GenMagBio, model: DOF-9696) using a viral DNA & RNA extraction kit (Beijing GenMagBio) (for the extraction procedure, please refer to the instrument manual) to obtain HBV DNA. The HBV DNA was quantified by probe real-time fluorescent quantitative PCR, in which the reagent used was Premix Ex Taq™ (Takara), the instrument used was Roche's LightCycler® 96, the primer sequences used for fluorescence quantification were shown in Table 1, and the fluorescence quantitative reaction system was shown in Table 2. […]

[1] = p<0.05, dose-dependent in some extent

CC1(C)CCC(C)(C)c2cc(Cn3cccn3)c(/C=C/c3ccc(C(=O)O)cc3)cc21 [Palovarotene]
effectively inhibit: level of HBV cccDNA (p<0.0001, dose-dependent in some extent) | level of intracellular HBV DNA (p<0.001, dose-dependent in some extent) | level of HBeAg in the cell supernatant [1] | level of HBsAg in the cell supernatant [1]
